Measured values: article PMC6978316, “Development of chimeric peptides to facilitate the neutralisation of lipopolysaccharides during bactericidal targeting of multidrug-resistant Escherichia coli” (Communications Biology, 2020)
Where two headings read alike, the source gives them in different places. Where a SMILES comes first, the peptide text is derived from it. Bridges are numbered along the chain shown (N, C = ends).

How the values were obtained:
[1] = system: 1:1 mixture of E. coli CVCC195 and S. aureus ATCC43300; type: cell-based, Escherichia coli; Staphylococcus aureus; conditions: Mean
Method: The selectivity of A6, G6, and N6 against Gram-negative and Gram-positive bacteria was determined using the mixed-culture bactericidal kinetics assay, as described in the Supplementary Information.
27 Supplementary Figure 6. Killing selectivity of peptides. A 1:1 mixture of E. coli (Ec) and S. aureus
28 (Sa) was treated with A6 (16 μg per ml), G6 (16 μg per ml) or N6 (2 μg per ml) for 1, 3 and 5 min,
29 respectively; survivors were counted in MH plates. The change in relative ratio of E. coli to S. aureus
30 (Ec/Sa) after treatment with A6, G6 or N6 is shown.
31 independent experiments).
(§1) (1 picture or pasted object on this page, not shown here)
102 Supplementary Methods
103 Mixed-culture bactericidal kinetics of SCPs-A6 and G6. The mid-exponential phage E. coli
104 CVCC195 and S. aureus ATCC43300 cultures were diluted to 2 × 10^5 CFU per ml, mixed (1:1) and
105 added into the 96-well plates. A6, G6 or N6 were added into each well of plates to final concentration
106 of 16 (A6 and G6) or 2 (N6) μg per ml in a 200-μl total volume. An aliquot was removed at 1, 3 and 5
107 min, respectively, and survivors were counted on MH solid plates1–3. […]

[2] = system: MDR E. coli CVCC195; assay: SEM and TEM, cell morphology and ultrastructure; type: cell-based, Escherichia coli; conditions: E. coli CVCC195, 4 × MIC, 2 h; at least 200 cells scored; manuscript lines quoted in the peer review file
Method: SEM was used to examine the ultrastructural changes in bacteria treated with peptides. […] PBS was used as the negative control. After centrifugation, the bacterial precipitation was added with 2.5% glutaraldehyde and the cells were fixed at 4 °C for 24 h. After ethanol dehydration, drying and coating, samples were visualized by a QUANTA200 SEM (FEI, Philips, Netherlands)[65].
The processing and preparation of TEM samples was similar to that of SEM until glutaraldehyde fixation. After washing with PBS, bacterial cells were fixed in 1% […] buffer for 1 h, dehydrated in a series of acetone (50–100%) and embedded, followed by preparation into ultra-thin sections and staining with 1% uranyl acetate. […] At least 200 bacterial cells were visualized and scored for the observed characteristics.

[3] = system: binding of LPS to LBP; assay: Binding of LPS to LBP on LPS-immobilized plate (ELISA); type: biochemical; conditions: mean of n = 3
Method: The 96-well microtiter plates were coated with 4 ng per ml LPS (0.1 M Na2CO3 and 20 mM EDTA, pH 9.6, 50 μl per well) overnight at 4 °C, washed three times with PBST, and blocked with PBS (containing 1% BSA) for 2 h. After washing with PBST again, the plates were incubated at 37 °C for 1 h with different concentrations of peptides (A6, G6, or N6), which were dissolved in Dulbecco's Modified Eagle's (DMEM) medium (containing 10% FBS). After washing, cells were incubated with anti-LBP mAb 6G3 (ThermoFisher) for 1 h at 37 °C and HRP-conjugated rabbit anti-mouse IgG for 1 h at room temperature, respectively. Tetramethylbenzidine (TMB) solution was then added and incubated for 25–30 min. Finally, the reaction was stopped by addition of 0.5 M H2SO4, and the absorbance was measured at 450 nm[50].

[4] = system: TNF-α, IL-6 and IL-10 in LPS-stimulated RAW 264.7 cells; assay: Cytokines in LPS-stimulated macrophages (ELISA); type: cell-based, mouse; design: unit not given here
Method: Macrophages RAW 264.7 were incubated with LPS (0.1 and 1 μg per ml) that was dissolved in serum-free DMEM medium, and then were treated with A6, G6, N6, or PMB (20 μM) alone in 24-well plates (2.5 × 10^5 cells per well). The cells incubated with serum-free DMEM and LPS were used as a control. After treatment for 2 h, the supernatants were collected and assessed for TNF-α, IL-6, and IL-10 by using the ELISA kits in the Jiaxuan Biotech. Co. Ltd. (Beijing, China).
73 Supplementary Figure 15. Effects of SCPs on cytokines in RAW 264.7 ells. Cells were incubated with 0.1 μg per
74 ml (a) or 1 μg per ml (b) LPS and 20 μM A6, G6, N6 or PMB for 2 h. The levels of TNF-α, IL-6 and IL-10 in
75 supernatants were measured using ELISA. The data are given as the mean ± SD (n = 3 independent experiments).
76 Different lower case letters indicate a significant difference between two groups (p < 0.05).
as §1

[5] = system: E. coli LPS; assay: Sepsis mouse model, survival after lethal LPS challenge; type: in vivo, ICR mice; conditions: mice, LPS 13.5 mg per kg i.p., 7 d, n = 5; for survival rate: 0.0625 μmol per kg; for mouse survival: 0.125 μmol per kg
Method: The mouse survival was recorded for 7 d. The mice injected with LPS or saline were used as negative or blank controls, respectively.

[6] = system: NF-κB p-p65 subunit; assay: Western blotting of lung tissues, p-p65/p65; type: in vivo, mice; conditions: for densitometric analysis of p-p65/p65 ratio: LPS + substance, Mean; for inhibition of LPS-induced translocation of the NF-κB p-p65 subunit: lung tissue 8 h, LPS 13.5 mg per kg, western blotting, densitometry
Method: (§2) Additionally, the mice were sacrificed at 8 h and the lung tissues were homogenized and suspended in […] HEPES buffer for 20 min according to standard procedures. After centrifugation at 4 °C for 20 min (12,000 rpm), the protein levels of supernatants were quantified using a Bradford protein assay kit. A total of 30 μg proteins were analyzed on an 8–12% sodium dodecyl sulfate-polyacrylamide gel electrophoresis (SDS-PAGE) gel and were immunoblotted onto PVDF membranes, followed by an incubation with the primary antibodies of p65, p-p65, extracellular signal-regulated kinase (ERK)1/2, p-ERK1/2, and IκBα overnight at 4 °C. After washing, the blots were incubated with the peroxidase conjugated goat-rabbit or goat-mouse antibodies. Relative protein expression levels were quantified by a densitometric measurement of chemiluminescence (ECL) reaction band. β-actin was used as the internal reference.

[7] = system: ERK1/2 phosphorylation; assay: Western blotting of lung tissues, p-ERK1/2/ERK1/2; type: in vivo, mice; conditions: for densitometric analysis of p-ERK1/2/ERK1/2 ratio: LPS + substance, Mean; for attenuation of ERK1/2 phosphorylation: lung tissue 8 h, LPS 13.5 mg per kg, western blotting, densitometry
Method: as §2

[8] = system: IκBα; assay: Western blotting of lung tissues, IκBα/β-actin; type: in vivo, mice; conditions: for densitometric analysis of IκBα/β-actin ratio: LPS + substance, Mean; for effect on LPS-induced IκBα levels: lung tissue 8 h, LPS 13.5 mg per kg, western blotting
Method: as §2

[9] = 0.625 μM, LPS-coated plate, peptide in DMEM + 10% FBS, 37 °C, 1 h, anti-LBP mAb, OD450
[10] = RAW 264.7 cells incubated with 0.1 μg per ml LPS
[11] = RAW 264.7 cells incubated with 1 μg per ml LPS

Compound | killing selectivity of peptides ([1]; time 0 min) | killing selectivity of peptides ([1]; time 1 min) | killing selectivity of peptides ([1]; time 3 min) | abnormal cells in TEM (lysis, non-uniform cytoplasmic electron and morphologically abnormal cells) [2] | LPS-LBP binding (relative), Mean [3, 9] | LPS-LBP binding (relative), Mean ([3]; 1.25 μM) | LPS-LBP binding (relative), Mean ([3]; 2.5 μM) | LPS-LBP binding (relative), Mean ([3]; 5 μM) | LPS-LBP binding (relative), Mean ([3]; 10 μM) | LPS-LBP binding (relative), Mean ([3]; 20 μM) | LPS-LBP binding (relative), Mean ([3]; 40 μM) | IL-6 Mean [4, 10] | IL-10 Mean [4, 10] | TNFα Mean [4, 10] | IL-6 Mean [4, 11] | IL-10 Mean [4, 11] | TNFα Mean [4, 11] | mouse survival [5] | densitometric analysis of p-p65/p65 ratio [6] | inhibition of LPS-induced translocation of the NF-κB p-p65 subunit [6] | also measured
CC(C)[C@@H]1NC(=O)CNC(=O)[C@H](CC(N)=O)NC(=O)[C@H](CCCNC(=N)N)NC(=O)[C@H](Cc2ccc(O)cc2)NC(=O)[C@H](C(C)C)NC(=O)[C@@H](NC(=O)[C@@H](NC(=O)[C@H](CC(N)=O)NC(=O)[C@H](Cc2c[nH]c3ccccc23)NC(=O)[C@H](C)NC(=O)[C@H](Cc2ccccc2)NC(=O)CNC(=O)[C@H](CO)NC(=O)CNC(=O)CNC(=O)CNC(=O)CNC(=O)[C@H](CCCCN)NC(=O)[C@H](Cc2ccccc2)NC(=O)[C@H](Cc2ccccc2)NC(=O)[C@H](CO)NC(=O)[C@H](C)NC(=O)[C@H](CCCNC(=N)N)NC(=O)[C@@H](NC(=O)[C@H](CCCCN)NC(=O)[C@H](Cc2c[nH]c3ccccc23)NC(=O)[C@H](CCCNC(=N)N)NC(=O)CNC(=O)[C@H](CCC(N)=O)NC(=O)[C@@H](NC(=O)[C@@H](N)CCCNC(=N)N)C(C)C)C(C)C)C(C)C)CSSC[C@@H](C(=O)N[C@@H](Cc2c[nH]cn2)C(=O)N[C@@H](CCCNC(=N)N)C(=O)N[C@@H](CCCNC(=N)N)C(=O)N[C@@H](C)C(=O)N[C@@H](CC(N)=O)C(=O)O)NC(=O)[C@H](C(C)C)NC(=O)[C@H](CCCNC(=N)N)NC1=O [G6] (H-RVQGRWKVRASFFKGGGGSGFAWNVCVYRNGVRVCHRRAN-OH; disulfide 26-35) | 0.9569 | 0.5118 | 0.1311 | ~50% | 0.7905 | 0.7506 | 0.344 | 0.2387 | 0.1958 | 0.1311 | 0.1347 | 280.633 | 106.633 | 481.5 | 352.733 | 142.667 | 599.567 | 100% | 0.7685 | 25.3% | survival rate [5]: 80%; densitometric analysis of p-ERK1/2/ERK1/2 ratio [7]: 0.1248; attenuation of ERK1/2 phosphorylation [7]: 88.2%; densitometric analysis of IκBα/β-actin ratio [8]: 0.9933; effect on LPS-induced IκBα levels [8]: promoted LPS-induced IκBα levels
CC(C)[C@@H]1NC(=O)CNC(=O)[C@H](CC(N)=O)NC(=O)[C@H](CCCNC(=N)N)NC(=O)[C@H](Cc2ccc(O)cc2)NC(=O)[C@H](C(C)C)NC(=O)[C@@H](NC(=O)[C@@H](NC(=O)[C@H](CC(N)=O)NC(=O)[C@H](Cc2c[nH]c3ccccc23)NC(=O)[C@H](C)NC(=O)[C@H](Cc2ccccc2)NC(=O)CN)C(C)C)CSSC[C@@H](C(=O)N[C@@H](Cc2c[nH]cn2)C(=O)N[C@@H](CCCNC(=N)N)C(=O)N[C@@H](CCCNC(=N)N)C(=O)N[C@@H](C)C(=O)N[C@@H](CC(N)=O)C(=O)O)NC(=O)[C@H](C(C)C)NC(=O)[C@H](CCCNC(=N)N)NC1=O [N6] (H-GFAWNVCVYRNGVRVCHRRAN-OH; disulfide 7-16; N-terminus and C-terminus assumed) | 0.9569 | 0.9093 | 0.8204 | 19% | 0.82 | 1.017 | 0.8065 | 0.8105 | 0.7607 | 0.6457 | 0.5608 | 279.833 | 106.233 | 479.8 | 303.4 | 118.033 | 495.967 | 60% | 0.9793 | 5% | killing selectivity of peptides ([1]; time 5 min): 0.6732; survival ([5]; 0.25 μmol per kg): All mice survived; densitometric analysis of p-ERK1/2/ERK1/2 ratio [7]: 0.9271; attenuation of ERK1/2 phosphorylation [7]: 16.1%; densitometric analysis of IκBα/β-actin ratio [8]: 1.158; effect on LPS-induced IκBα levels [8]: promoted LPS-induced IκBα levels
H-RVQGRWKVRASFFKEAAAKEAAAKGFAWNVCVYRNGVRVCHRRAN-OH (disulfide 31-40) [A6] | 0.9569 | 0.7697 | 0.8015 | Approximately 75% | 0.6863 | 0.4991 | 0.4036 | 0.3236 | 0.2858 | 0.2468 | 0.1705 | 246.9 | 89.8 | 410.667 | 216.667 | 77.3667 | 355.9 | 100% | 0.106 | 89.7% | killing selectivity of peptides ([1]; time 5 min): 0.5904; survival rate [5]: 60%; densitometric analysis of p-ERK1/2/ERK1/2 ratio [7]: 1.795; attenuation of ERK1/2 phosphorylation [7]: moderately promoted the ERK1/2 phosphorylation; densitometric analysis of IκBα/β-actin ratio [8]: 1.193; effect on LPS-induced IκBα levels [8]: promoted LPS-induced IκBα levels
